In brackets after ≈: the same amount, converted by molar mass. Read-outs that look alike come from different tables or passages of the source.
Legend:
[1] = Thermodynamic equilibrium aqueous solubility assay; assay type: physicochemical; details: aqueous solvent, pH 6.5, aqueous buffer, thermodynamic from solid; read-out: Aq. sol., mg/mL (pH)
Experimental: Thermodynamic Equilibrium Aqueous Solubility Assay
The calibration standard is prepared by accurately weighing 0.5-0.7 mg of sample in 5 ml of methanol. If the material is not fully soluble in methanol, other solvents such as DMSO or mixed solvents will be used.
*The calibration standard is typically prepared fresh immediately before the start of the assay. A two-point calibration curve should be used to determine the concentration of the final solution. A serial dilution is performed on the standard solution.
The final saturated solution is prepared by adding 1.0 ml of the appropriate aqueous solvent to the remaining portion of material (˜1 mg/l ml) into a 1 dram vial. The solution is sonicated and vortexed for ˜30 seconds. The sample solution is placed on an orbiter that continually agitates the sample solutions for 15-24 hours at room temperature. The final saturated solution is then transferred to a 1.5 ml Eppendorf tube and centrifuged for ˜2 min. at 10000 rpms. The supernatant from the saturated solution is transferred to a glass HPLC vial without filtering since the 1.5 mL volume is insufficient to saturate a syringe filter. This sample preparation procedure nullifies the effects of non-specific binding to the filtering apparatus.
The standards and sample are analyzed by HPLC using either UV/Vis diode array or variable wavelength detection. Typical quantitation wavelengths are 210 or 254 nm; detection wavelength can be individually customized to optimize sensitivity. In addition to UV detection, mass spectrometry detection is recommended if available in order to confirm the identity of the HPLC-UV peak of interest.
Dilutions of aqueous test solutions are performed if HPLC-UV peak is beyond the linear portion of the standard calibration curve. Typical dilutions include 100 ul/900 ul (×10) or 500 ul/500 ul (2×), as required.
HPLC grade solvents are employed.

[2] = Solution stability assay (pH 1.0 and pH 7.4, 37° C.); assay type: physicochemical; details: conversion of the prodrug to compound 1, 37° C., read-out: Aq. Stability half-life (pH 1/7.4) Hrs (converted)
Experimental: Acetonitrile Stock Solution: Prepare an Acetonitrile Stock Solution of the prodrug by dissolving 1.5-2.0 mg of accurately weighted compound in 5.0 mL of acetonitrile in 5 mL volumetric flask.
(§1) pH 7.4 Buffer Working Solution: Prepare a pH 7.4 Buffer working Solution of drug by adding 1.5 mL of the Acetonitrile Stock Solution to 3.5 mL of stability buffer in a 20 mL scintillation vial, mix very well. Using a 3 mL syringe withdraw ˜3 mL of solution and filter using the Gelman 0.45 μm syringe filter into a clean 1.5 mL LC vial. This filtered solution will be used to evaluate the prodrug degradation throughout the course of the study. Target concentration: 90-120 μg/mL (70% Aqueous: 30% Acetonitrile)
as §1, with “1.0 Acidic” for “7.4 Buffer”, “pH1.0 Working” for “pH 7.4 Buffer working”
Following the sample preparation procedure described above a single sample (n=1) is prepared for each pH condition. The samples were then placed in an HPLC autosampler maintained at 37° C. and samples were analyzed over a 24 hr period. Prodrug remaining (%) is reported relative to the initial peak area (t=0 h). In cases where a conversion to parent half-life could be calculated, a t1/2 was generated. Confirmation of the conversion to parent from the prodrug was obtained by LCMS and HPLC analysis of the final timepoint samples.
Typical LC parameters are shown below:
• HPLC System: HP1100 Series, Hewlett Packard., Heated autosampler • Analytical column. Synergi 4u Hydro C18, 4.6 mm×5.0 cm, Phenomenex • Column temperature: 40° C. • Autosampler temp: 37° C. • Flow rate: 1.0 mL/min • Injection Volume: 10 μL • Mobile Phase: A: Acetonitrile • B: 0.1% Phosphoric acid in water • Run Time: 14.0 minutes • Typical LCMS parameters are shown below: • LC-MS System: Surveyor HPLC system, ThermoFinnigan LCQ Deca XP Max (Ion trap) • Analytical column. Synergi 4u Hydro C18, 4.6 mm×5.0 cm, Phenomenex • Column temperature: 40° C. • Autosampler temp: 22° C. • Flow rate: 1.0 mL/min • Injection Volume: 5 […] • Mobile Phase: A: 95% Acetonitrile/5% 20 mM Ammonium Acetate • B: 5% Acetonitrile/95% 20 mM Ammonium Acetate • LCQ Parameters • Sheath Flow Rate: 81.64 • Aux/Sweep Flow Rate: 19.01 • Current (uA): 10.89 • Voltage (kV): 5.00 • Capillary©: 348.10 • Capillary Voltage (V): 30.44

| SMILES | solubility thermodynamic [1] [mg/mL] | half-life ([2]; pH 1) [h] | half-life ([2]; pH 7.4) [h] |
| --- | --- | --- | --- |
| CC(C)[C@@H](NC(=O)NCC(C)(C)O)C(=O)N1CC[C@](OCOP(=O)(O)O)(c2ccc(Cl)cc2)C(C)(C)C1 [Example 28] | 7.1 (≈ 12600 µM) | 1.4 | > 22 |
| CC(C)[C@H](N)C(=O)OC(C)(C)CNC(=O)N[C@@H](C(=O)N1CC[C@](O)(c2ccc(Cl)cc2)C(C)(C)C1)C(C)C [Example 3, (S)-1-(3-((R)-1-((S)-4-(4-chlorophenyl)-4-hydroxy-3,3-dimethylpiperidin-1-yl)-3-methyl-1-oxobutan-2-yl)ureido)-2-methylpropan-2-yl 2-amino-3-methylbutanoate] | > 0.6 | 237 | > 22 |
| CC(C)[C@@H](NC(=O)NCC(C)(C)OC(=O)OCOC(=O)CS(=O)(=O)O)C(=O)N1CC[C@](O)(c2ccc(Cl)cc2)C(C)(C)C1 [Example 34] | > 0.18 | 47 | > 22 |
| CC(C)[C@@H](NC(=O)NCC(C)(C)OC(=O)Cc1ccc(OP(=O)(O)O)cc1)C(=O)N1CC[C@](O)(c2ccc(Cl)cc2)C(C)(C)C1 [Example 24] | 1.1 (≈ 1650 µM) | 77 | > 22 |

Other lines, results leading:

| solubility thermodynamic [1] [mg/mL] | half-life ([2]; pH 1) [h] | half-life ([2]; pH 7.4) [h] | SMILES |
| --- | --- | --- | --- |
| 0.317 (≈ 558 µM) | > 22 | > 22 | CC(C)[C@@H](NC(=O)NCC(C)(C)OC(=O)CCCC(=O)O)C(=O)N1CC[C@](O)(c2ccc(Cl)cc2)C(C)(C)C1 [Example 20] |
| > 0.3 | 25 | 23 | CC(C)[C@@H](NC(=O)NCC(C)(C)OC(=O)OCS(=O)(=O)O)C(=O)N1CC[C@](O)(c2ccc(Cl)cc2)C(C)(C)C1 [Example 23] |
| 0.34 (≈ 556 µM) | 85 | 131 | CC(C)[C@@H](NC(=O)NCC(C)(C)OC(=O)OCCN1CCOCC1)C(=O)N1CC[C@](O)(c2ccc(Cl)cc2)C(C)(C)C1 [Example 7, 1-(3-((R)-1-((S)-4-(4-chlorophenyl)-4-hydroxy-3,3-dimethylpiperidin-1-yl)-3-methyl-1-oxobutan-2-yl)ureido)-2-methylpropan-2-yl 2-morpholinoethyl carbonate] |
| 1.1 (≈ 2150 µM) | 159 | 86 | CC(C)[C@@H](NC(=O)NCC(C)(C)OC(=O)CN)C(=O)N1CC[C@](O)(c2ccc(Cl)cc2)C(C)(C)C1 [Example 1, 1-(3-((R)-1-((S)-4-(4-chlorophenyl)-4-hydroxy-3,3-dimethylpiperidin-1-yl)-3-methyl-1-oxobutan-2-yl)ureido)-2-methylpropan-2-yl 2-aminoacetate] |

— patent US8410139B2, “Prodrugs of a piperidinyl derivative as modulators of chemokine receptor activity” (Bristol-Myers Squibb Company, priority 2009, dated 2013)
